How the values were obtained:
Leishmania infantum [1] = test: Antileishmanial activity against ABC transporter PRP1 gene expressing Leishmania infantum MHOM/MA/67/ITMAP-263 axenic amastigotes assessed as fold resistance relative to control
Leishmania amazonensis [2] = test: Antileishmanial activity against ABC transporter PRP1 gene expressing Leishmania amazonensis MHOM/BR/1973/MM2269 promastigotes infected in human THP1 cells assessed as fold resistance by luciferase based assay relative to control; type: functional, THP-1
Leishmania major [3] = test: Antileishmanial activity against wild-type Leishmania major LV39 promastigotes infected in human THP1 cells by luciferase based assay; type: functional, organism-based; conditions: LV39, THP-1
Leishmania major [4] = test: Antileishmanial activity against ABC transporter PRP1 gene expressing Leishmania major LV39 promastigotes infected in human THP1 cells assessed as fold resistance by luciferase based assay relative to control; type: functional, THP-1
Leishmania amazonensis [5] = test: Antileishmanial activity against wild-type Leishmania amazonensis MHOM/BR/1973/MM2269 promastigotes infected in human THP1 cells by luciferase based assay; type: functional, organism-based; conditions: THP-1
Leishmania infantum [6] = test: Antileishmanial activity against wild-type Leishmania infantum MHOM/MA/67/ITMAP-263 promastigotes infected in human THP1 cells by luciferase based assay; type: functional, organism-based; conditions: THP-1

Compound | fold change (FC) (Leishmania infantum [1]) | fold change (FC) (Leishmania amazonensis [2]) | IC50 (Leishmania major [3]) | fold change (FC) (Leishmania major [4]) | IC50 (Leishmania amazonensis [5]) | IC50 (Leishmania infantum [6])
N=C(N)c1ccc(OCCCCCOc2ccc(C(=N)N)cc2)cc1 [PENTAMIDINE] | 3 | 3 | 5.1 µg/mL | 3 | 6.8 µg/mL | 10 µg/mL
COc1ccc(CCN(C)CCCC(C#N)(c2ccc(OC)c(OC)c2)C(C)C)cc1OC (centres undefined) [VERAPAMIL] |  |  | 40.3 µM |  | 19.1 µM | 43.2 µM

Reference: ChEMBL document CHEMBL1155136, “Role of the ABC transporter PRP1 (ABCC7) in pentamidine resistance in Leishmania amastigotes” (Antimicrob Agents Chemother, 2007)
